Source: patent US20140378496A1, “OPIOID […] 3-HYDROXYA[…] TREATING PAIN” (SLX PHARMACEUTICALS, LLC, priority 2011, published 2014)

System: visceral pain model in mice
Test: Acetic acid writhing protocol (abdominal contortion test), visceral pain model in mice
Type: in vivo, male Swiss Webster mice
Conditions: 50-400 mg/kg PO; lowest dose (50 mpk) removed as apparent outlier
Protocol: In order to test the analgesic activity of the combination of an opioid (hydrocodone) and 3-hydroxyacetanilide, both compounds were tested separately and in combination in a visceral pain model in mice.
Experimental animals: One hundred fifty-five 4-week old, male Swiss Webster mice (stock number 024) were purchased from Charles River Laboratories (Portage, Mich.). The study animals were allowed an acclimation period of 1-2 weeks prior to dose initiation. The mice were housed 4-6 per cage and maintained in the Innovive caging system (San Diego, Calif.) upon arrival at. In accordance with the Guide for Care and Use of Laboratory Animals (Eighth Edition), mouse rooms were maintained at temperatures of 66-75 degrees Fahrenheit and relative humidity between 30% and 70%. Cages were monitored daily to ensure the Innovive system maintained 50 air changes per hour and positive pressure. The rooms were lit by artificial light for 12 hours each day (7:00 AM -7:00 PM). […]
Animals were allowed to acclimate to the testing room for a minimum of 1 hour prior to the experiment. […] The number of writhes over a 5 min duration were counted (5-10 and 15-20 min post-dose) starting 5 min after acetic acid administration. […]

In the case of CC(=O)Nc1cccc(O)c1 [3-hydroxyacetanilide], the “shape of dose response curve (% AA vs dose)” value is reported as “bell-shaped”.
